Laboratory results: US8937064B2, “Pyrazolo[1,5-a]pyrimidines useful as JAK2 inhibitors” (Vertex Pharmaceuticals Incorporated, priority 2007, dated 2015)

biological target: JAK-2 enzyme (Homo sapiens, UniProt O60674); experiment: JAK2 Inhibition Assay; details: not given
Sequence (O60674 whole entry): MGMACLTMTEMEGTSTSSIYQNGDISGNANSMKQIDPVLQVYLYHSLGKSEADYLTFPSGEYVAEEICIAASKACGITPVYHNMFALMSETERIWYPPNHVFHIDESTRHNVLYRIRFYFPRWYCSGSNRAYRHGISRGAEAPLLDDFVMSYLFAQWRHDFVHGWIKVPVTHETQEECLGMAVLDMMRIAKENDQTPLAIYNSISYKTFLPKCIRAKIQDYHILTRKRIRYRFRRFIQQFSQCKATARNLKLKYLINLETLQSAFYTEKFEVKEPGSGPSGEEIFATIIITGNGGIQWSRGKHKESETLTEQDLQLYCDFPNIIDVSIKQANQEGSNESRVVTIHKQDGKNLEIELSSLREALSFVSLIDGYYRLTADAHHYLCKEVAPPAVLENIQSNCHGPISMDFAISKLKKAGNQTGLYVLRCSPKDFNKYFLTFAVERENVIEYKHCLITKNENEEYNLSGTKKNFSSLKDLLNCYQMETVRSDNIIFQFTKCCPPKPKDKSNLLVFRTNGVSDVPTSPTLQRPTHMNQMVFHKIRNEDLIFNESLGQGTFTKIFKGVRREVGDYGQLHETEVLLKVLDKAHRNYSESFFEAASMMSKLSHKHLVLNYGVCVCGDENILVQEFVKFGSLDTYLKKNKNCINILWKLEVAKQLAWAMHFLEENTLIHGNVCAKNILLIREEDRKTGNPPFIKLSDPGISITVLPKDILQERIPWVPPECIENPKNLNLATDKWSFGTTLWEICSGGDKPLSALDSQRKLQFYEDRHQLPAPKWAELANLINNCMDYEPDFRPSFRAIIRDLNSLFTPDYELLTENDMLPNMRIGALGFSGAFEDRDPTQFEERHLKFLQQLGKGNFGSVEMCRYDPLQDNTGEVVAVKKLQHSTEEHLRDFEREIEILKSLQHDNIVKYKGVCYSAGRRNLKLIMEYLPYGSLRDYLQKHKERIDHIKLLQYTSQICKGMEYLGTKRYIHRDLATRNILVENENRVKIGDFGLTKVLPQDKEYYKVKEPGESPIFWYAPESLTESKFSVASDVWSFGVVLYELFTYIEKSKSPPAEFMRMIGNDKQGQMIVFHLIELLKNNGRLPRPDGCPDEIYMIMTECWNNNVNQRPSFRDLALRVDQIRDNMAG

Ki, 100 to 500 nM:
CC(C)[C@@H](Nc1cc(-c2c(N)nn3cccnc23)nc(N2CCOCC2)n1)c1ccc(F)cc1F [Compound 104]
O=C(Nc1ccnc(-c2cnn3cccnc23)c1)c1ccccc1F [Compound 228]
COc1cc2c(cc1OC)CN(c1cc(-c3c(N)nn4cccnc34)ncn1)CC2 [Compound 35]
C[C@H](Nc1cc(-c2c(N)nn3cccnc23)nc(OCCCC2CCCC2)n1)c1ccc(F)cc1 [Compound 177]

Ki, 10 to 100 nM:
Cc1ccc(CNc2cc(-c3c(N)nn4cccnc34)ncn2)o1 [Compound 26]
CCC#CCOc1nc(N[C@@H](C)c2ccc(F)cc2)cc(-c2c(N)nn3cccnc23)n1 [Compound 162]
CCN(CC)C(=O)COc1nc(N[C@@H](C)c2ccc(F)cc2F)cc(-c2c(N)nn3cccnc23)n1 [Compound 127]
C[C@H](Nc1cc(-c2c(N)nn3cccnc23)nc(OC[C@@H]2CO2)n1)c1ccc(F)cc1 [Compound 163]
C[C@H](Nc1cc(-c2c(N)nn3cccnc23)nc(OCC2CCCN2)n1)c1ccc(F)cc1F (stereo partly drawn) [Compound 142]
C[C@@H](Oc1cc(-c2c(N)nn3cccnc23)ncn1)c1ccccc1 [Compound 67]
COC(C)(C)CCOc1nc(N[C@@H](C)c2ccc(F)cc2F)cc(-c2cnn3cccnc23)n1 [Compound 194]
OCC[C@H](Nc1cc(-c2cnn3cccnc23)ncn1)c1ccccc1 [Compound 115]
Nc1nn2cccnc2c1-c1cc(N[C@@H]2CCCc3ccccc32)ncn1 [Compound 79]
CC1CC1COc1nc(N[C@@H](C)c2ccc(F)cc2)cc(-c2c(N)nn3cccnc23)n1 (stereo partly drawn) [Compound 158]
C[C@@H](c1ccccc1)N(C)c1cc(-c2c(N)nn3cccnc23)ncn1 [Compound 19]
C[C@H](Nc1cc(-c2c(N)nn3cccnc23)nc(OCC2CCCN(C)C2)n1)c1ccc(F)cc1 (stereo partly drawn) [Compound 171]
CC(C)[C@@H](Nc1cc(-c2cnn3cccnc23)ncn1)c1ccc(F)cc1F [Compound 120]
C[C@H](Nc1cc(-c2c(N)nn3ccc(C(F)(F)F)nc23)ncn1)c1ccc(F)cc1F [Compound 135]
CC(C)=CCOc1nc(N[C@@H](C)c2ccc(F)cc2)cc(-c2c(N)nn3cccnc23)n1 [Compound 152]

Ki, < 10 nM:
Nc1nn2cccnc2c1-c1cc(NCc2ccccc2OC(F)(F)F)ncn1 [Compound 14]
C[C@H](Nc1cc(-c2c(N)nn3cc(F)cnc23)ncn1)c1ccc(F)cc1F [Compound 105]
CCC(C#N)Oc1nc(N[C@@H](C)c2ccc(F)cc2F)cc(-c2cnn3cccnc23)n1 (stereo partly drawn) [Compound 192]
C[C@H](Nc1cc(-c2cnn3cccnc23)nc(OCCN2CCCC2=O)n1)c1ccc(F)cc1F [Compound 209]
CC[C@H](Nc1cc(-c2c(N)nn3cccnc23)ncn1)c1ccc(F)c(F)c1 [Compound 62]
C[C@H](Nc1cc(-c2c(N)nn3cccnc23)nc(N2CCC(N(C)C)C2)n1)c1ccc(F)cc1 (stereo partly drawn) [Compound 190]
C[C@H](Nc1cc(-c2cnn3cccnc23)nc(OC2CCN(C)CC2)n1)c1ccc(F)cc1F [Compound 200]
C[C@H](Nc1cc(-c2cnn3cccnc23)nc(OCC2CCOC2)n1)c1ccc(F)cc1F (stereo partly drawn) [Compound 222]
CCC1c2ccccc2CCN1c1cc(-c2c(N)nn3cccnc23)ncn1 (stereo not drawn) [Compound 64]
C[C@H](Nc1cc(-c2c(N)nn3cccnc23)nc(OCCN2CCCC2=O)n1)c1ccc(F)cc1F [Compound 128]
C[C@H](Nc1cc(-c2c(N)nn3cccnc23)nc(OCC(F)(F)F)n1)c1ccc(F)cc1 [Compound 156]
COC(C)(C)CCOc1nc(N[C@@H](C)c2ccc(F)cc2F)cc(-c2c(N)nn3cccnc23)n1 [Compound 138]
CC(Oc1cc(-c2c(N)nn3cccnc23)ncn1)c1ccc(F)cc1 (stereo not drawn) [Compound 71]
C=CCOCCOc1nc(N[C@@H](C)c2ccc(F)cc2F)cc(-c2cnn3cccnc23)n1 [Compound 221]
C=CCOc1nc(N[C@@H](C)c2ccc(F)cc2)cc(-c2c(N)nn3cccnc23)n1 [Compound 169]
C[C@H](Nc1cc(-c2c(N)nn3cccnc23)nc(OC[C@H]2CO2)n1)c1ccc(F)cc1 [Compound 159]
CC1CC1COc1nc(N[C@@H](C)c2ccc(F)cc2F)cc(-c2cnn3cccnc23)n1 (stereo partly drawn) [Compound 214]
C#CCOc1nc(N[C@@H](C)c2ccc(F)cc2)cc(-c2c(N)nn3cccnc23)n1 [Compound 150]
CCC(Oc1cc(-c2c(N)nn3cccnc23)ncn1)c1ccccc1 (stereo not drawn) [Compound 65]
C[C@H](Nc1cc(-c2cnn3cccnc23)nc(OCCN2CCCCCC2)n1)c1ccc(F)cc1F [Compound 217]
C[C@H](Nc1cc(-c2cnn3cccnc23)nc(OCCCNCc2ccncc2)n1)c1ccc(F)cc1F [Compound 220]
C[C@H](Nc1cc(-c2cnn3cccnc23)nc(OCCN2CCNCC2)n1)c1ccc(F)cc1F [Compound 210]
C[C@H](Nc1cc(-c2cnn3cccnc23)nc(OCCN2CCCC2)n1)c1ccc(F)cc1F [Compound 204]
C[C@H](Nc1cc(-c2c(N)nn3cccnc23)nc(N2CCOCC2)n1)c1ccc(F)cc1 [Compound 96]
CCN(CC)CCOc1nc(N[C@@H](C)c2ccc(F)cc2)cc(-c2c(N)nn3cccnc23)n1 [Compound 99]
C[C@H](Nc1cc(-c2c(N)nn3cccnc23)nc(OCC2CCCO2)n1)c1ccc(F)cc1F (stereo partly drawn) [Compound 139]

biological target: T1, JAK3 (Homo sapiens, UniProt P52333); experiment: JAK3 Inhibition Assay; assay type: biochemical; details: 1 nM JAK3, 1 μM poly(Glu)4Tyr, 5 μM ATP, 25° C., 33P incorporation
T1 sequence (P52333 1-1124): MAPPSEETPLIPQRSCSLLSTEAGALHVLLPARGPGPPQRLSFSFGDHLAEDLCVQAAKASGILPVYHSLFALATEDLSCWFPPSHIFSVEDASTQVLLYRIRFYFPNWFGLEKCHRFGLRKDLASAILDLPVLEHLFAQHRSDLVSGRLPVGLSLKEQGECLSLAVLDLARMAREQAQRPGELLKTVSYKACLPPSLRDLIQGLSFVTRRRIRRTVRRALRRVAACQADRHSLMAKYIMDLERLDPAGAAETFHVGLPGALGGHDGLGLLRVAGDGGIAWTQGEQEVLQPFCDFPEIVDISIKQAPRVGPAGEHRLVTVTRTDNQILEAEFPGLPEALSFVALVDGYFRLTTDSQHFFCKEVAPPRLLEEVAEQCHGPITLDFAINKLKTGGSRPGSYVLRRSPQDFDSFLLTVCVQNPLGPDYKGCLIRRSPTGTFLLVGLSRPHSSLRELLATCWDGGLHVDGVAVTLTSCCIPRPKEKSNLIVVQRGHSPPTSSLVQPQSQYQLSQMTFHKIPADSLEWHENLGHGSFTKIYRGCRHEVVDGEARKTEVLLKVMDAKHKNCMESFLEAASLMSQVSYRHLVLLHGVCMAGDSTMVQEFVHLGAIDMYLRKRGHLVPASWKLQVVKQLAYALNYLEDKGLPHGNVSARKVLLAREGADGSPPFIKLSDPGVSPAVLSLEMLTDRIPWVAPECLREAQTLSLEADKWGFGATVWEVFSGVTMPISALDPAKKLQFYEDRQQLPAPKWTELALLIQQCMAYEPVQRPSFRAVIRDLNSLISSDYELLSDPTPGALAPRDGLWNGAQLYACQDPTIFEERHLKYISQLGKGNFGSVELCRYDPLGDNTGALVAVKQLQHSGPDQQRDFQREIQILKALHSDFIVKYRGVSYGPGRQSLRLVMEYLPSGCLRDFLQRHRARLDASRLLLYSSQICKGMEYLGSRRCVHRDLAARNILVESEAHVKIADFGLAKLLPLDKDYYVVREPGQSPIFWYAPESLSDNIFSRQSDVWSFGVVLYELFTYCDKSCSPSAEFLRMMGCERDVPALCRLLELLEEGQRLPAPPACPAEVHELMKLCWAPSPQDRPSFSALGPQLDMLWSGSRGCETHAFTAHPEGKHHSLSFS

Ki, 500 to 5000 nM:
CC(C)[C@@H](Nc1cc(-c2c(N)nn3cccnc23)nc(N2CCOCC2)n1)c1ccc(F)cc1F [Compound 104]
C[C@H](Nc1cc(-c2c(N)nn3cccnc23)nc(OC[C@@H]2CO2)n1)c1ccc(F)cc1 [Compound 163]
O=C(Nc1ccnc(-c2cnn3cccnc23)c1)c1ccccc1F [Compound 228]
C[C@H](Nc1cc(-c2c(N)nn3cccnc23)nc(OCCCC2CCCC2)n1)c1ccc(F)cc1 [Compound 177]

Ki, 10 to 100 nM:
Nc1nn2cccnc2c1-c1cc(NCc2ccccc2OC(F)(F)F)ncn1 [Compound 14]
C[C@H](Nc1cc(-c2c(N)nn3cc(F)cnc23)ncn1)c1ccc(F)cc1F [Compound 105]
CCC(C#N)Oc1nc(N[C@@H](C)c2ccc(F)cc2F)cc(-c2cnn3cccnc23)n1 (stereo partly drawn) [Compound 192]
C[C@H](Nc1cc(-c2cnn3cccnc23)nc(OCCN2CCCC2=O)n1)c1ccc(F)cc1F [Compound 209]
CC[C@H](Nc1cc(-c2c(N)nn3cccnc23)ncn1)c1ccc(F)c(F)c1 [Compound 62]
C[C@H](Nc1cc(-c2c(N)nn3cccnc23)nc(N2CCC(N(C)C)C2)n1)c1ccc(F)cc1 (stereo partly drawn) [Compound 190]
C[C@H](Nc1cc(-c2cnn3cccnc23)nc(OCC2CCOC2)n1)c1ccc(F)cc1F (stereo partly drawn) [Compound 222]
C[C@H](Nc1cc(-c2c(N)nn3cccnc23)nc(OCCN2CCCC2=O)n1)c1ccc(F)cc1F [Compound 128]
OCC[C@H](Nc1cc(-c2cnn3cccnc23)ncn1)c1ccccc1 [Compound 115]
COC(C)(C)CCOc1nc(N[C@@H](C)c2ccc(F)cc2F)cc(-c2c(N)nn3cccnc23)n1 [Compound 138]
CC(Oc1cc(-c2c(N)nn3cccnc23)ncn1)c1ccc(F)cc1 (stereo not drawn) [Compound 71]
C=CCOCCOc1nc(N[C@@H](C)c2ccc(F)cc2F)cc(-c2cnn3cccnc23)n1 [Compound 221]
C=CCOc1nc(N[C@@H](C)c2ccc(F)cc2)cc(-c2c(N)nn3cccnc23)n1 [Compound 169]
C#CCOc1nc(N[C@@H](C)c2ccc(F)cc2)cc(-c2c(N)nn3cccnc23)n1 [Compound 150]
CCC(Oc1cc(-c2c(N)nn3cccnc23)ncn1)c1ccccc1 (stereo not drawn) [Compound 65]
C[C@H](Nc1cc(-c2cnn3cccnc23)nc(OCCN2CCCCCC2)n1)c1ccc(F)cc1F [Compound 217]
C[C@H](Nc1cc(-c2cnn3cccnc23)nc(OCCCNCc2ccncc2)n1)c1ccc(F)cc1F [Compound 220]
C[C@H](Nc1cc(-c2c(N)nn3cccnc23)nc(OCC2CCCN(C)C2)n1)c1ccc(F)cc1 (stereo partly drawn) [Compound 171]
C[C@H](Nc1cc(-c2cnn3cccnc23)nc(OCCN2CCNCC2)n1)c1ccc(F)cc1F [Compound 210]
C[C@H](Nc1cc(-c2cnn3cccnc23)nc(OCCN2CCCC2)n1)c1ccc(F)cc1F [Compound 204]
C[C@H](Nc1cc(-c2c(N)nn3cccnc23)nc(N2CCOCC2)n1)c1ccc(F)cc1 [Compound 96]
CCN(CC)CCOc1nc(N[C@@H](C)c2ccc(F)cc2)cc(-c2c(N)nn3cccnc23)n1 [Compound 99]
C[C@H](Nc1cc(-c2c(N)nn3cccnc23)nc(OCC2CCCO2)n1)c1ccc(F)cc1F (stereo partly drawn) [Compound 139]
CC(C)=CCOc1nc(N[C@@H](C)c2ccc(F)cc2)cc(-c2c(N)nn3cccnc23)n1 [Compound 152]

Ki, 100 to 500 nM:
Cc1ccc(CNc2cc(-c3c(N)nn4cccnc34)ncn2)o1 [Compound 26]
CCC#CCOc1nc(N[C@@H](C)c2ccc(F)cc2)cc(-c2c(N)nn3cccnc23)n1 [Compound 162]
CCN(CC)C(=O)COc1nc(N[C@@H](C)c2ccc(F)cc2F)cc(-c2c(N)nn3cccnc23)n1 [Compound 127]
C[C@H](Nc1cc(-c2c(N)nn3cccnc23)nc(OCC2CCCN2)n1)c1ccc(F)cc1F (stereo partly drawn) [Compound 142]
C[C@H](Nc1cc(-c2cnn3cccnc23)nc(OC2CCN(C)CC2)n1)c1ccc(F)cc1F [Compound 200]
C[C@@H](Oc1cc(-c2c(N)nn3cccnc23)ncn1)c1ccccc1 [Compound 67]
COc1cc2c(cc1OC)CN(c1cc(-c3c(N)nn4cccnc34)ncn1)CC2 [Compound 35]
COC(C)(C)CCOc1nc(N[C@@H](C)c2ccc(F)cc2F)cc(-c2cnn3cccnc23)n1 [Compound 194]
CCC1c2ccccc2CCN1c1cc(-c2c(N)nn3cccnc23)ncn1 (stereo not drawn) [Compound 64]
C[C@H](Nc1cc(-c2c(N)nn3cccnc23)nc(OCC(F)(F)F)n1)c1ccc(F)cc1 [Compound 156]
Nc1nn2cccnc2c1-c1cc(N[C@@H]2CCCc3ccccc32)ncn1 [Compound 79]
C[C@H](Nc1cc(-c2c(N)nn3cccnc23)nc(OC[C@H]2CO2)n1)c1ccc(F)cc1 [Compound 159]
CC1CC1COc1nc(N[C@@H](C)c2ccc(F)cc2)cc(-c2c(N)nn3cccnc23)n1 (stereo partly drawn) [Compound 158]
CC1CC1COc1nc(N[C@@H](C)c2ccc(F)cc2F)cc(-c2cnn3cccnc23)n1 (stereo partly drawn) [Compound 214]
C[C@@H](c1ccccc1)N(C)c1cc(-c2c(N)nn3cccnc23)ncn1 [Compound 19]
CC(C)[C@@H](Nc1cc(-c2cnn3cccnc23)ncn1)c1ccc(F)cc1F [Compound 120]
C[C@H](Nc1cc(-c2c(N)nn3ccc(C(F)(F)F)nc23)ncn1)c1ccc(F)cc1F [Compound 135]
